The values below are quoted from earlier work in US20240293547A1, “POLYMERIC PERFLUOROCARBON NANOEMULSIONS FOR ULTRASONIC DRUG UNCAGING” (The Board of Trustees of the Leland Stanford Junior …, priority 2017, published 2024).

The conditions of this series: for LogP: of the loaded drug.

As for `COC(=O)C1=C(C)NC(C)=C(C(=O)OCCN(C)Cc2ccccc2)C1c1cccc([N+](=O)[O-])c1` (stereo not drawn) [Nicardipine], the “log P” value is given as 3.8 and the log partition coefficient (LogP) is on record as 3.82.

As to `Cc1cccc([C@H](C)c2cnc[nH]2)c1C` [Dexmedetomidine], the LogP was 2.8.
